pIC50: −log10 of the molar value. Read-outs that look alike come from different tables or passages of the source.
Experiments:
OAT1 = target: T1, OAT1 (Homo sapiens, UniProt Q4U2R8); test: OAT1 inhibitor (IC50) assessment, PAH uptake in transfected HEK cells; assay type: in vitro ADME
T1 construct: expressed in transfected cells; host or cells: HEK293
T1 sequence (Q4U2R8 1-563): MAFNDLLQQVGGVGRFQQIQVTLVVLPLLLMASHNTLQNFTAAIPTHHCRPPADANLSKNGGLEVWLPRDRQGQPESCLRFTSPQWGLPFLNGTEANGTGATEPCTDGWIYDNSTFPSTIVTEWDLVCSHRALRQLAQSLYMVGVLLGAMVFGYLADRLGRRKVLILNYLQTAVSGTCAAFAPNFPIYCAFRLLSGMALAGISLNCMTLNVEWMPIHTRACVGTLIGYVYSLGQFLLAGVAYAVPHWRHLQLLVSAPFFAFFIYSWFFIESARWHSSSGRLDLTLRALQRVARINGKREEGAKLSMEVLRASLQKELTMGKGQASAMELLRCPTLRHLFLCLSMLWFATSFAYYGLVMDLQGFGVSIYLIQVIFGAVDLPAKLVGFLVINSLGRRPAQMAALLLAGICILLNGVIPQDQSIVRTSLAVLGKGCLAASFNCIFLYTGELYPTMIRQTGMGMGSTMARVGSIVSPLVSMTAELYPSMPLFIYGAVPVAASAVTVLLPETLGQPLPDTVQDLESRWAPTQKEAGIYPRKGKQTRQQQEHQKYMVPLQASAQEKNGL

[1] = Non-specific binding assessment, efflux transporter format (cell-free Transwell plates); assay type: in vitro ADME; conditions: pH 7.4, all three replicates
Text: Triplicate wells were used for the assay (Table 31). The samples were withdrawn at pre-selected time points from the receiver and donor compartments and mixed with an equal volume of acetonitrile containing IS.

[2] = male, CD (Sprague-Dawley) IGS, rat, in vivo
OATP1B1 = target: T2, OATP1B1 (Homo sapiens, UniProt Q9Y6L6)
T2 sequence (Q9Y6L6 1-691): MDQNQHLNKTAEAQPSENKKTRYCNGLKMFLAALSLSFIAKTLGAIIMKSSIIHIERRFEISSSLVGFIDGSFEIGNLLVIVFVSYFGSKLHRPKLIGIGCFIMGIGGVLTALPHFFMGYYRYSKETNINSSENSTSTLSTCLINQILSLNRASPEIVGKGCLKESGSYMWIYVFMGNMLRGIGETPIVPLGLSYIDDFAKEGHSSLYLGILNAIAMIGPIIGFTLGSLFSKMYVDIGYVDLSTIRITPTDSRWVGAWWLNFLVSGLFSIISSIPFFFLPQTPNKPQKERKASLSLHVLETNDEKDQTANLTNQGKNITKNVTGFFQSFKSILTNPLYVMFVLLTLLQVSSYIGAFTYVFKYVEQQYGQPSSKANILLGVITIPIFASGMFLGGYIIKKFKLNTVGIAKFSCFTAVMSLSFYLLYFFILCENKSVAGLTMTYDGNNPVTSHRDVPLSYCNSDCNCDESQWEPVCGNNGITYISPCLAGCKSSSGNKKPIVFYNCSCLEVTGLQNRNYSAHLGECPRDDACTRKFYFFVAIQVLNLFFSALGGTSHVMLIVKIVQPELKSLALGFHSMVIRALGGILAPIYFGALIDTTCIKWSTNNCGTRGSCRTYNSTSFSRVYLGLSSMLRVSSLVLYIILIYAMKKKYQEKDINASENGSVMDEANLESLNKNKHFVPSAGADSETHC

[3] = CYP reaction phenotyping: CYP control (negative control without CYP enzymes); conditions: CYP Control (without CYP enzymes) 0.1 mg protein/mL, TA 5 μM
Procedure: The reaction was initiated by the addition of NADPH, followed by incubation at 37° C.

MATE1 = target: T3, MATE1 (Homo sapiens, UniProt Q96FL8)
T3 sequence (Q96FL8 1-570): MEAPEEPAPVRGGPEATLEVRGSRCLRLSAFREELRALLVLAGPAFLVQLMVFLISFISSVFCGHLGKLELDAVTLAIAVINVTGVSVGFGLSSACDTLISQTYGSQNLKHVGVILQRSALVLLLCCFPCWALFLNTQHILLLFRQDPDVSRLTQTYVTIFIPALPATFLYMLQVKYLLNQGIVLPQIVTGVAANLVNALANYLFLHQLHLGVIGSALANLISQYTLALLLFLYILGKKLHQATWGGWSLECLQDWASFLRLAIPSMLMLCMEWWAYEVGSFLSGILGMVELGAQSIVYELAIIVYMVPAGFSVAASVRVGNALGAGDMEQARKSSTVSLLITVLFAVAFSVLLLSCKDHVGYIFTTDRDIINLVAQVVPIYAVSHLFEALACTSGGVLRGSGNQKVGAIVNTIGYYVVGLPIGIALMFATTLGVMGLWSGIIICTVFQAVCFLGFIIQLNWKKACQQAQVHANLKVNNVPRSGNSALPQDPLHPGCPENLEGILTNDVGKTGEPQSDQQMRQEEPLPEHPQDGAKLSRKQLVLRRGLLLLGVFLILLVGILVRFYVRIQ

[4] = Relevant concentrations of TUDCA and PB for in vitro transporter assessment ([I]1, [I]2, Iin,max); conditions: for Plasma Cmax (total [I]1): component of AMX0035; for [I]2: estimated, highest oral dose TUDCA 1000 mg, PB 3000 mg; for Unbound Cmax (Unbound [I]1) / Unbound [I]in, max: projected
[5] = TUDCA and PB present simultaneously, PAH uptake, HEK cells, read-out: estimated IC50 toward OAT1
[6] = previous study (Example 6), converted, read-out: IC50 for in vitro inhibition of human OAT1

C[C@H](CCC(=O)NCCS(=O)(=O)O)[C@H]1CC[C@H]2[C@@H]3[C@@H](O)C[C@@H]4C[C@H](O)CC[C@]4(C)[C@H]3CC[C@]12C [TUDCA, tauroursodeoxycholic acid]
pIC50 (OAT1; [5]): 6.65 to 7.13
pIC50 (OAT1; [6]): 6.65 to 7.15
pIC50 (OAT1; previous study (Example 6), read-out: IC50 for in vitro inhibition of human OAT1): 6.65 to 7.13
recovery [1]: > 80%
mean endogenous plasma levels over the 24 hour time course [2]: 130 to 222 ng/mL
pIC50 (OATP1B1): 4.41 to 4.89
% Remaining of TA ([3]; 0 min): 100%
% Remaining of TA ([3]; 5 min): 99.4%
% Remaining of TA ([3]; 10 min): 97.9%
% Remaining of TA ([3]; 20 min): 95.9%
% Remaining of TA ([3]; 30 min): 93.7%
pIC50 (MATE1): 3.09 to 3.57
estimated [I]2 ([4]; Table 28): 8005 µM
projected unbound Cmax ([4]; Table 28): 1.62 µM
unbound [I]1 ([4]; Table 28): 1.62 µM
Plasma Cmax (total [I]1) [4]: 108 µM
[I]2 [4]: 8005 µM
projected unbound Iin,max ([4]; oral administration, Table 28): 3.48 µM
Unbound Cmax (Unbound [I]1) [4]: 1.62 µM
Unbound [I]in, max [4]: 3.48 µM

O=C(O)CCCc1ccccc1 [PB, sodium phenylbutyrate]
pIC50 (OAT1; [5]): 4.69 to 5.17
pIC50 (OAT1; [6]): 4.70 to 5.17
recovery [1]: > 80%
plasma concentrations remained quantifiable through [2]: 4 h
pIC50 (OATP1B1): 2.44 to 2.92
pIC50 (MATE1): 1.13 to 1.61
estimated [I]2 ([4]; Table 28): 64447 µM
projected unbound Cmax ([4]; Table 28): 148 µM
Plasma Cmax (total [I]1) [4]: 826 µM
[I]2 [4]: 64447 µM
projected unbound Iin,max ([4]; human): 326 µM
unbound [I]1 ([4]; human): 148 µM
Unbound Cmax (Unbound [I]1) [4]: 148 µM
Unbound [I]in, max [4]: 326 µM

From patent US20230277630A1, “METHODS AND COMPOSITIONS FOR TREATING AMYOTROPHIC LATERAL SCLEROSIS” (Amylyx Pharmaceuticals, Inc., priority 2022, published 2023)
